Data as given in patent US9687479B2, “Multisubstituted aromatic compounds as serine protease inhibitors” (VERSEON CORPORATION, priority 2013, dated 2017).

Target: Human thrombin (Homo sapiens (Human), UniProt P00734)
Assay: Thrombin protease activity inhibition assay (chromogenic substrate S-2238)
Format: biochemical
Conditions: 3 nM thrombin, 125 μM S-2238, 10 min pre-incubation, RT
Procedure, shortened: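 Ten-point, three-fold serial dilutions of compound tested against 3 nM enzyme at RT in Tris buffer (0.05 M, pH 7.4) with 0.015 M NaCl and 0.01% PEG-8000.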

| Structure (SMILES) | IC50 |
| --- | --- |
| COc1ccccc1C(=O)n1nc(-c2cccn(C)c2=O)cc1NCc1ccc(Cl)s1 [Cmpd 147, 3-(5-[(5-chlorothiophen-2-yl)methyl]amino-1-[(2-methoxyphenyl)carbonyl]-1H-pyrazol-3-yl)-1-methyl-1,2-dihydropyridin-2-one] | < 100 nM |
| CC(C)(C)C(=O)n1nc(-c2cccn(Cc3ccc4ccccc4c3)c2=O)cc1NCc1ccc(Cl)s1 [Cmpd 80, 3-(5-[(5-chlorothiophen-2-yl)methyl]amino-1-(2,2-dimethylpropanoyl)-1H-pyrazol-3-yl)-1-(naphthalen-2-ylmethyl)-1,2-dihydropyridin-2-one] | < 100 nM |
| N#CCn1cccc(-c2cc(NCc3ccc(Cl)s3)n(C(=O)c3ccoc3)n2)c1=O [Cmpd 58, 2-[3-(5-[(5-chlorothiophen-2-yl)methyl]amino-1-[(furan-3-yl)carbonyl]-1H-pyrazol-3-yl)-2-oxo-1,2-dihydropyridin-1-yl]acetonitrile] | < 100 nM |
| COc1ccc(C(=O)n2nc(-c3ccc[nH]c3=O)cc2NCc2ccc(Cl)s2)c(OC)c1 [Cmpd 121, 3-(5-[(5-chlorothiophen-2-yl)methyl]amino-1-[(2,4-dimethoxyphenyl)carbonyl]-1H-pyrazol-3-yl)-1,2-dihydropyridin-2-one] | < 100 nM |
| Cn1cccc(-c2cc(NCc3ccc(Cl)s3)n(C(=O)c3ccc(C(C)(C)C)cc3)n2)c1=O [Cmpd 254, 3-1-[(4-tert-butylphenyl)carbonyl]-5-[(5-chlorothiophen-2-yl)methyl]amino-1H-pyrazol-3-yl-1-methyl-1,2-dihydropyridin-2-one] | < 100 nM |
| CC(C)(C)C(=O)n1nc(-c2cccn(Cc3cccc4ccccc34)c2=O)cc1NCc1ccc(Cl)s1 [Cmpd 79, 3-(5-[(5-chlorothiophen-2-yl)methyl]amino-1-(2,2-dimethylpropanoyl)-1H-pyrazol-3-yl)-1-(naphthalen-1-ylmethyl)-1,2-dihydropyridin-2-one] | < 100 nM |
| CC(C)(C)OC(=O)Cn1cccc(-c2cc(NCc3ccc(Cl)s3)n(C(=O)C(C)(C)C)n2)c1=O [Cmpd 261, tert-butyl 2-[3-(5-[(5-chlorothiophen-2-yl)methyl]amino-1-(2,2-dimethylpropanoyl)-1H-pyrazol-3-yl)-2-oxo-1,2-dihydropyridin-1-yl]acetate] | < 100 nM |
| O=C(c1cccs1)n1nc(-c2cccn(Cc3cccnn3)c2=O)cc1NCc1ccc(Cl)s1 [Cmpd 185, 3-(5-[(5-chlorothiophen-2-yl)methyl]amino-1-[(thiophen-2-yl)carbonyl]-1H-pyrazol-3-yl)-1-(pyridazin-3-ylmethyl)-1,2-dihydropyridin-2-one] | > 100000 nM |
| CC(C)(C)OC(=O)Cn1cccc(-c2cc(NCc3ccc(Cl)s3)[nH]n2)c1=O [Cmpd 264, tert-butyl 2-[3-(5-[(5-chlorothiophen-2-yl)methyl]amino-1H-pyrazol-3-yl)-2-oxo-1,2-dihydropyridin-1-yl]acetate] | > 100000 nM |
| O=c1c(-c2cc(NCc3ccc(Cl)s3)[nH]n2)cccn1CCc1ccccc1 [Cmpd 221, 3-(5-[(5-chlorothiophen-2-yl)methyl]amino-1H-pyrazol-3-yl)-1-(2-phenylethyl)-1,2-dihydropyridin-2-one] | 10000 to 100000 nM |
| COc1ccccc1C(=O)n1nc(-c2cccn(Cc3ccccn3)c2=O)cc1NCc1ccc(Cl)s1 [Cmpd 139, 3-(5-[(5-chlorothiophen-2-yl)methyl]amino-1-[(2-methoxyphenyl)carbonyl]-1H-pyrazol-3-yl)-1-(pyridin-2-ylmethyl)-1,2-dihydropyridin-2-one] | < 100 nM |
| O=C(c1cccc2c1OCCO2)n1nc(-c2cccn(Cc3ccsc3)c2=O)cc1NCc1ccc(Cl)s1 [Cmpd 118, 3-(5-[(5-chlorothiophen-2-yl)methyl]amino-1-[(2,3-dihydro-1,4-benzodioxin-5-yl)carbonyl]-1H-pyrazol-3-yl)-1-(thiophen-3-ylmethyl)-1,2-dihydropyridin-2-one] | < 100 nM |
| O=C(c1ccccc1Cl)n1nc(-c2cccn(Cc3ccsc3)c2=O)cc1NCc1ccc(Cl)s1 [Cmpd 251, 3-1-[(2-chlorophenyl)carbonyl]-5-[(5-chlorothiophen-2-yl)methyl]amino-1H-pyrazol-3-yl-1-(thiophen-3-ylmethyl)-1,2-dihydropyridin-2-one] | < 100 nM |
| O=C(c1cccc2c1OCCO2)n1nc(-c2cccn(Cc3ccoc3)c2=O)cc1NCc1ccc(Cl)s1 [Cmpd 111, 3-(5-[(5-chlorothiophen-2-yl)methyl]amino-1-[(2,3-dihydro-1,4-benzodioxin-5-yl)carbonyl]-1H-pyrazol-3-yl)-1-(furan-3-ylmethyl)-1,2-dihydropyridin-2-one] | < 100 nM |
| O=C(c1cccs1)n1nc(-c2cccn(Cc3ncccn3)c2=O)cc1NCc1ccc(Cl)s1 [Cmpd 189, 3-(5-[(5-chlorothiophen-2-yl)methyl]amino-1-[(thiophen-2-yl)carbonyl]-1H-pyrazol-3-yl)-1-(pyrimidin-2-ylmethyl)-1,2-dihydropyridin-2-one] | < 100 nM |
| O=C(c1ccco1)n1nc(-c2cccn(Cc3ccsc3)c2=O)cc1NCc1ccc(Cl)s1 [Cmpd 169, 3-(5-[(5-chlorothiophen-2-yl)methyl]amino-1-[(furan-2-yl)carbonyl]-1H-pyrazol-3-yl)-1-(thiophen-3-ylmethyl)-1,2-dihydropyridin-2-one] | < 100 nM |
| CC(C)(C)C(=O)n1nc(-c2cccn(Cc3cccs3)c2=O)cc1NCc1ccc(Cl)s1 [Cmpd 86, 3-(5-[(5-chlorothiophen-2-yl)methyl]amino-1-(2,2-dimethylpropanoyl)-1H-pyrazol-3-yl)-1-(thiophen-2-ylmethyl)-1,2-dihydropyridin-2-one] | < 100 nM |
| O=C(c1ccsc1)n1nc(-c2cccn(Cc3cccnn3)c2=O)cc1NCc1ccc(Cl)s1 [Cmpd 197, 3-(5-[(5-chlorothiophen-2-yl)methyl]amino-1-[(thiophen-3-yl)carbonyl]-1H-pyrazol-3-yl)-1-(pyridazin-3-ylmethyl)-1,2-dihydropyridin-2-one] | < 100 nM |
| O=C(c1ccc(N2CCOCC2)cc1)n1nc(-c2cccn(Cc3ncccn3)c2=O)cc1NCc1ccc(Cl)s1 [Cmpd 215, 3-(5-[(5-chlorothiophen-2-yl)methyl]amino-1-[4-(morpholin-4-yl)phenyl]carbonyl-1H-pyrazol-3-yl)-1-(pyrimidin-2-ylmethyl)-1,2-dihydropyridin-2-one] | < 100 nM |
| O=C(c1ccccc1Cl)n1nc(-c2cccn(Cc3cccnn3)c2=O)cc1NCc1ccc(Cl)s1 [Cmpd 245, 3-1-[(2-chlorophenyl)carbonyl]-5-[(5-chlorothiophen-2-yl)methyl]amino-1H-pyrazol-3-yl-1-(pyridazin-3-ylmethyl)-1,2-dihydropyridin-2-one] | < 100 nM |
| COc1ccc(C(=O)n2nc(-c3cccn(Cc4cccnn4)c3=O)cc2NCc2ccc(Cl)s2)c(OC)c1 [Cmpd 124, 3-(5-[(5-chlorothiophen-2-yl)methyl]amino-1-[(2,4-dimethoxyphenyl)carbonyl]-1H-pyrazol-3-yl)-1-(pyridazin-3-ylmethyl)-1,2-dihydropyridin-2-one] | < 100 nM |
| COCC(C)(C)C(=O)n1nc(-c2cccn(Cc3ccoc3)c2=O)cc1NCc1ccc(Cl)s1 [Cmpd 99, 3-(5-[(5-chlorothiophen-2-yl)methyl]amino-1-(3-methoxy-2,2-dimethylpropanoyl)-1H-pyrazol-3-yl)-1-(furan-3-ylmethyl)-1,2-dihydropyridin-2-one] | < 100 nM |
| O=C(c1ccc(N2CCOCC2)cc1)n1nc(-c2cccn(Cc3ccco3)c2=O)cc1NCc1ccc(Cl)s1 [Cmpd 209, 3-(5-[(5-chlorothiophen-2-yl)methyl]amino-1-[4-(morpholin-4-yl)phenyl]carbonyl-1H-pyrazol-3-yl)-1-(furan-2-ylmethyl)-1,2-dihydropyridin-2-one] | < 100 nM |
| COc1ccccc1C(=O)n1nc(-c2cccn(Cc3ccsc3)c2=O)cc1NCc1ccc(Cl)s1 [Cmpd 144, 3-(5-[(5-chlorothiophen-2-yl)methyl]amino-1-[(2-methoxyphenyl)carbonyl]-1H-pyrazol-3-yl)-1-(thiophen-3-ylmethyl)-1,2-dihydropyridin-2-one] | < 100 nM |
| O=C(c1cccc2c1OCCO2)n1nc(-c2ccc[nH]c2=O)cc1NCc1ccc(Cl)s1 [Cmpd 108, 3-(5-[(5-chlorothiophen-2-yl)methyl]amino-1-[(2,3-dihydro-1,4-benzodioxin-5-yl)carbonyl]-1H-pyrazol-3-yl)-1,2-dihydropyridin-2-one] | < 100 nM |
| O=C(c1ccco1)n1nc(-c2cccn(Cc3ccccn3)c2=O)cc1NCc1ccc(F)cc1 [Cmpd 74, 3-(5-[(4-fluorophenyl)methyl]amino-1-[(furan-2-yl)carbonyl]-1H-pyrazol-3-yl)-1-(pyridin-2-ylmethyl)-1,2-dihydropyridin-2-one] | < 100 nM |
| COc1ccccc1C(=O)n1nc(-c2cccn(CCc3ccccc3)c2=O)cc1NCc1ccc(Cl)s1 [Cmpd 134, 3-(5-[(5-chlorothiophen-2-yl)methyl]amino-1-[(2-methoxyphenyl)carbonyl]-1H-pyrazol-3-yl)-1-(2-phenylethyl)-1,2-dihydropyridin-2-one] | < 100 nM |
| O=C(c1ccoc1)n1nc(-c2cccn(Cc3ccoc3)c2=O)cc1NCc1ccc(Cl)s1 [Cmpd 173, 3-(5-[(5-chlorothiophen-2-yl)methyl]amino-1-[(furan-3-yl)carbonyl]-1H-pyrazol-3-yl)-1-(furan-3-ylmethyl)-1,2-dihydropyridin-2-one] | < 100 nM |
| CC1(C(=O)n2nc(-c3cccn(Cc4ccco4)c3=O)cc2NCc2ccc(Cl)s2)CCOCC1 [Cmpd 150, 3-(5-[(5-chlorothiophen-2-yl)methyl]amino-1-[(4-methyloxan-4-yl)carbonyl]-1H-pyrazol-3-yl)-1-(furan-2-ylmethyl)-1,2-dihydropyridin-2-one] | < 100 nM |
| COc1ccccc1C(=O)n1nc(-c2cccn(Cc3ccc(Cl)s3)c2=O)cc1NCc1ccc(Cl)s1 [Cmpd 40, 1-[(5-chlorothiophen-2-yl)methyl]-3-(5-[(5-chlorothiophen-2-yl)methyl]amino-1-[(2-methoxyphenyl)carbonyl]-1H-pyrazol-3-yl)-1,2-dihydropyridin-2-one] | < 100 nM |
